US9676778B2, “Substituted pyrrolo[2,3-b]pyrazines as JAK3 inhibitors” (PRINCIPIA BIOPHARMA INC., priority 2012, dated 2017)
One block for each compound: values may come before it.

Tests used:
[1] = test system: mixed lymphocyte reaction; settings: Kudlacz 2004; cited from earlier work
[2] = test system: delayed-type hypersensitivity response; settings: Kudlacz 2004; cited from earlier work
[3] = test system: collagen-induced arthritis; settings: Milici 2008; cited from earlier work
psoriasis = settings: short-term study, Boy 2009; cited from earlier work
JAK3 = target: T1, JAK3 (Homo sapiens, UniProt P52333); assay: Determination of Drug-Kinase Residence Time for JAK3 (TR-FRET tracer competition); assay type: binding; settings: 1.5 uM compound, 500 nM JAK3, from 1 hour through 6 hours
T1 construct: purchased Invitrogen PV3855
Description: The read-out for slow dissociation is the ability of the compound of interest to block binding of a high affinity fluorescent tracer molecule to the kinase active site, as detected using time-resolved fluorescence resonance energy transfer (TR-FRET). The experiment was conducted in a buffer consisting of 50 mM Hepes pH 7.5, 10 mM MgCl2, 0.01% Triton X-100, and 1 mM EGTA.
The first step of the procedure was incubation of 500 nM JAK3 (Invitrogen Cat. #PV3855) with 1.5 uM of a compound disclosed in Table 1 for 30 minutes in a volume of 10 uL. The mixture was then diluted 5-fold by mixture of 10 uL JAK3/cmpd with 40 uL buffer. A 10 uL volume of the diluted kinase/compound solution was then added to a well of a small volume 384 well plate (such as Greiner Cat. #784076). In order to probe for reversibility of the kinase-compound binding interaction, a competition solution containing both a high affinity fluorescent tracer and an antibody coupled to Europium was prepared. For JAK3, the competition solution contained 8 uM Tracer 236 (Invitrogen Cat. #PV5592), which is a proprietary high affinity ligand for JAK3 coupled to the fluorophore AlexaFluor 647. The competition solution also contained 80 nM of an Anti-GST antibody coupled to Europium which is designed to bind the GST purification tag in JAK3.
After addition of 10 uL of the competition solution to the Greiner plate, the mixture was incubated for one hour or greater to allow time for dissociation of non-covalent inhibitors and binding of the high affinity tracer. It was expected that covalent and slow dissociating inhibitors will block binding of the tracer while rapidly dissociating non-covalent inhibitors will not. Binding of the tracer to JAK3 was detected using TR-FRET between the Europium moiety of the Anti-GST antibody and the AlexaFluor 647 group of Tracer 236. Binding was evaluated using a Perkin Elmer Envision instrument (Model 2101) equipped with filters and mirrors compatible with LANCE-type TR-FRET experiments. Data were plotted at percentage of signal obtained in the absence of competitor compound. […]

JAK3 protein = target: T2, JAK3 protein (Homo sapiens, UniProt P52333); assay: Reversibility of Binding (trypsin digestion, HPLC-MS/MS)
T2 sequence (P52333 1-1124): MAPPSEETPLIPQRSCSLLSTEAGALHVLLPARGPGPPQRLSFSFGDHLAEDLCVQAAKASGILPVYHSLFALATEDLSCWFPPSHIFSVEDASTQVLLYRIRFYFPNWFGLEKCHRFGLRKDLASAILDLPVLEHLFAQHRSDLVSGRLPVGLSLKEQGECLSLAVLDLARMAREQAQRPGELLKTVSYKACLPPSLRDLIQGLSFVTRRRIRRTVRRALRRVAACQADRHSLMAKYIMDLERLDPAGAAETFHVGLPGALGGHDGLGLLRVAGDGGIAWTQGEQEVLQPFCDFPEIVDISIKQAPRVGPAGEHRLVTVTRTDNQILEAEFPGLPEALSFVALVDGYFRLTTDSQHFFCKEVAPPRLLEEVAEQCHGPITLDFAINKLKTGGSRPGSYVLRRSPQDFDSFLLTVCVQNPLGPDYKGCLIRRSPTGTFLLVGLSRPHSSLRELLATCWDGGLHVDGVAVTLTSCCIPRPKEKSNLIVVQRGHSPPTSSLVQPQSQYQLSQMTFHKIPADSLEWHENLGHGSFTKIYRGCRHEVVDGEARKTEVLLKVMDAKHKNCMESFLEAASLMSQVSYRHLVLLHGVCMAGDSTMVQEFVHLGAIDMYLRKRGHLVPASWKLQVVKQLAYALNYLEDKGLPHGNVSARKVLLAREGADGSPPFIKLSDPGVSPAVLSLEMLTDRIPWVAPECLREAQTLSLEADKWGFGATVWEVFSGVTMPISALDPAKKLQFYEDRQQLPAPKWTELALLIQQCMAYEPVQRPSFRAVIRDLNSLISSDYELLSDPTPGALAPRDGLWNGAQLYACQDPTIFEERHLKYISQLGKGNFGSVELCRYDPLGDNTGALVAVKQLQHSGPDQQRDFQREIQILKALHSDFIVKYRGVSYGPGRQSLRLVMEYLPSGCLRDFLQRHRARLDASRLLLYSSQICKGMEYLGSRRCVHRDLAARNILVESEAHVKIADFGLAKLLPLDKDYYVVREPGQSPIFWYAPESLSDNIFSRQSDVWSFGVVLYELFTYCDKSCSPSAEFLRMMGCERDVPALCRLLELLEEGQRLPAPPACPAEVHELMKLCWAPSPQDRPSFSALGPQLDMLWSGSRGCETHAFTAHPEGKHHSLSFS
Description: The following approach was developed to differentiate compounds that form irreversible bonds with their targets, such as acrylamide compounds, from compound that bind reversibly. Reactions were prepared with the JAK3 protein target at a higher concentration than the compound of interest. The reactions were then digested with trypsin, disrupting proper folding of the target. […] The concentration of compound in solution was assessed both preceding and following perturbation using high performance liquid chromatography (HPLC) coupled to tandem mass spectrometry.

H78 = assay: Tumor Cell Proliferation Assay; assay type: cell-based; settings: H78, CTCL (Sézary syndrome); 72 hr
Description: (§1) Cells (SZ-4 CTCL cells) were plated at a density of 5000 cells/well (384 well plates). Cells were plated in DMEM culture media supplemented with 0.5% fetal bovine serum. Other tumor cells (e.g. NK-TCL, T-ALL) were plated at densities of 2000-10,000 cells/well in culture media (e.g. DMEM, RPMI), containing 1%-20% FBS, dependent on the growth requirements of the individual tumor cell line. Compounds were diluted in culture media using serial dilution yielding final concentrations with 0 (DMSO control) or concentrations ranging from 0.5 nM to 10 uM. For the CTCL cells, after 1 hr incubation, at 37° C. in 95% air, 5% CO2, cells were induced with 100 ng/ml IL-2 for 72 hr. For the other cell types, cells were incubated without further induction for 72 hr. Cell Titer-Glo reagent was then added to the cells, contents mixed for 2 min, incubated at room temperature for 10 min, then luminescence was determined using a microplate luminometer. The percent inhibition was calculated based on a DMSO control for no inhibition and plotted as a function of test compound concentration from which an IC50 value was calculated.

H9 = assay: Tumor Cell Proliferation Assay; assay type: cell-based; settings: Homo sapiens; H9, CTCL (Sézary syndrome); 72 hr
Description: as §1

HANK1 = assay: Tumor Cell Proliferation Assay; assay type: cell-based; settings: HANK1, NK-TCL; 72 hr
Description: as §1

HH = assay: Tumor Cell Proliferation Assay; assay type: cell-based; settings: Homo sapiens, CTCL (non MF, non Sézary syndrome), 72 hr
Description: as §1

Hut-102 = assay: Tumor Cell Proliferation Assay; assay type: cell-based; settings: Hut-102, CTCL (Mycosis fungoides); 72 hr
Description: as §1

KHG1 = assay: Tumor Cell Proliferation Assay; assay type: cell-based; settings: KHG1, NK-TCL; 72 hr
Description: as §1

MJ = assay: Tumor Cell Proliferation Assay; assay type: cell-based; settings: CTCL (Unknown), 72 hr
Description: as §1

NKS1 = assay: Tumor Cell Proliferation Assay; assay type: cell-based; settings: NKS1, NK-TCL; 72 hr
Description: as §1

SNK1 = assay: Tumor Cell Proliferation Assay; assay type: cell-based; settings: SNK1, NK-TCL; 72 hr
Description: as §1

SNK6 = assay: Tumor Cell Proliferation Assay; assay type: cell-based; settings: SNK6, NK-TCL; 72 hr
Description: as §1

SZ-4 CTCL cells = assay: Tumor Cell Proliferation Assay; assay type: cell-based; settings: SZ-4, CTCL (Sézary syndrome); 100 ng/ml IL-2, 72 hr, Cell Titer-Glo
Description: as §1

SMILES: C[C@@H]1CCN(C(=O)CC#N)C[C@@H]1N(C)c1ncnc2[nH]ccc12 [CP-690,550]
effect on mixed lymphocyte reaction (MLR) [1]: blocks
effect on delayed-type hypersensitivity response (DTH) [2]: blocks
effect in collagen-induced arthritis model [3]: blocks
efficacy in psoriasis patients (psoriasis): demonstrated efficacy

binding of Tracer 236 after pre-incubation with compound (JAK3): no increase
Compound in solution in the native state? (JAK3 protein; JAK3 at higher concentration than compound): no
Compound in solution in the denatured or digested state? (JAK3 protein; after digestion with trypsin): no
SMILES: C=CC(=O)Nc1cccc(-c2cnc3[nH]cc(C(=O)C(C)(C)C)c3n2)c1 [Compound 1, N-(3-(7-pivaloyl-5H-pyrrolo[2,3-b]pyrazin-2-yl)phenyl)acrylamide]

binding of Tracer 236 after pre-incubation with compound (JAK3): no increase
IC50 (H78): 150 nM
IC50 (H9): 450 nM
IC50 (HANK1): 1870 nM
IC50 (HH): 2700 nM
IC50 (Hut-102): 104 nM
IC50 (KHG1): 498 nM
IC50 (MJ): > 5000 nM
IC50 (NKS1): 109 nM
IC50 (SNK1): 735 nM
IC50 (SNK6): 8420 nM
IC50 (SZ-4 CTCL cells): 56 nM
SMILES: C=CC(=O)Nc1cccc(-c2cnc3[nH]cc(C(=O)NC(C)(C)C)c3n2)c1 [Compound 2, 2-(3-acrylamidophenyl)-N-(tert-butyl)-5H-pyrrolo[2,3-b]pyrazine-7-carboxamide]

binding of Tracer 236 after pre-incubation with compound (JAK3): no increase
SMILES: CN(C)CC=CC(=O)Nc1cccc(-c2cnc3[nH]cc(C(=O)NC(C)(C)C)c3n2)c1 [Compound 3, N-(tert-butyl)-2-(3-(4-(dimethylamino)but-2-enamido)phenyl)-5H-pyrrolo[2,3-b]pyrazine-7-carboxamide]
